In patent publication US8865623B2, “Herbicidally active cyclic diones and derivatives thereof, processes for their preparation, compositions, and method of controlling weeds” (Syngenta Limited, priority 2009, dated 2014) one finds pest or weed control data, which are given here for eight compounds.

Format in all cases: in vivo
Assay [1] relates to Alopecurus myosuroides (ALOMY). The assay can be described thus: Pre-emergence herbicidal activity, glasshouse pot test. Particulars: Alopecurus myosuroides, 312 h, Rate 250 g/ha, evaluated after 13 days, read-out: Pre-emergence activity ALOMY (100=total damage to plant; 0=no damage to plant). In short, it runs like this: (§1)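 Spray solution: technical a.i. formulated in acetone/water (50:50) with 0.5% Tween 20, diluted in water. Applied to pots 1 d (pre) or 8 d (post) after sowing; glasshouse 24/16° C day/night, 14 h light, 65% humidity. Rated at 13 d, 0–100 damage.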

In assay [2] the test system is Avena fatua (AVEFA). Described as above. Particulars: Avena fatua, 312 h, Rate 250 g/ha, evaluated after 13 days, read-out: Pre-emergence activity AVEFA (100=total damage to plant; 0=no damage to plant). The procedure, abridged:
as §1

In assay [3] the test system is Echinochloa crus-galli (ECHCG). The description is as above. The following applies: Echinochloa crus-galli, 312 h, Rate 250 g/ha, evaluated after 13 days, read-out: Pre-emergence activity ECHCG (100=total damage to plant; 0=no damage to plant). In short, it runs like this: as §1
In assay [4] the test system is Lolium perenne (LOLPE). The assay is described as above. Particulars: Lolium perenne, 312 h, Rate 250 g/ha, evaluated after 13 days, read-out: Pre-emergence activity LOLPE (100=total damage to plant; 0=no damage to plant). The procedure, abridged:
as §1

The test system of assay [5] is Alopecurus myosuroides (ALOMY). The assay is described as follows: Post-emergence herbicidal activity, glasshouse pot test. Particulars: Alopecurus myosuroides, 312 h, rate 250 g/ha, evaluated after 13 days, read-out: Post-emergence activity ALOMY (100=total damage to plant; 0=no damage to plant). In short, it runs like this:
as §1

Assay [6] relates to Avena fatua (AVEFA). The assay is described as above. Particulars: Avena fatua, 312 h, rate 250 g/ha, evaluated after 13 days, read-out: Post-emergence activity AVEFA (100=total damage to plant; 0=no damage to plant). The procedure, abridged:
as §1

For assay [7], the system named is Echinochloa crus-galli (ECHCG). Described as above. The following applies: Echinochloa crus-galli, 312 h, rate 250 g/ha, evaluated after 13 days, read-out: Post-emergence activity ECHCG (100=total damage to plant; 0=no damage to plant). The procedure, abridged:
as §1

Assay [8] relates to Lolium perenne (LOLPE). Described as above. Particulars: Lolium perenne, 312 h, rate 250 g/ha, evaluated after 13 days, read-out: Post-emergence activity LOLPE (100=total damage to plant; 0=no damage to plant). The procedure, abridged: as §1

Consider `CC1(C)OC(C)(C)C(O)=C(c2cc(Oc3ccc(OC(F)(F)F)cc3)ccc2C2CC2)C1=O` [Example A-356], for which the pest or weed control at 250 g/ha in assay [1] (pre-emergence) worked out at 90%; in assay [2] (pre-emergence) it was 70%; in assay [3] (pre-emergence) it was 100%; in assay [4] (pre-emergence), 100%; in assay [5], 100%; in assay [6], 100%. Further, the pest or weed control at 250 g/ha in assay [7] and in assay [8] was 100% throughout.

`CCc1ccc(Oc2ncc(Cl)cc2F)cc1C1=C(O)CC2(CCOCC2)CC1=O` [Example A-274]: the pest or weed control at 250 g/ha in assay [1] (pre-emergence spray), in assay [2] (pre-emergence spray), in assay [3] (pre-emergence spray), in assay [4] (pre-emergence spray), in assay [5] (glasshouse) and in assay [6] (glasshouse) was 100% in each case. Also, the pest or weed control at 250 g/ha in assay [7] (glasshouse) and in assay [8] (glasshouse) was 100% in each case.

As to `CCc1ccc(Oc2ncc(C(F)(F)F)cc2C(F)(F)F)cc1C1=C(O)[C@@H]2CC[C@](C)(C1=O)C2(C)C` [Example A-324], the pest or weed control at 250 g/ha in assay [1] (pre-emergence spray) was 90%; in assay [2] (pre-emergence spray), 90%; in assay [3] (pre-emergence spray), 100%; in assay [4] (pre-emergence spray), 100%; in assay [5] (glasshouse), 100%; in assay [6] (glasshouse), 100%. In addition, the pest or weed control at 250 g/ha in assay [7] (glasshouse) and in assay [8] (glasshouse) was 100% throughout.

`CCc1ccc(Oc2ccc(Br)cc2C#N)cc1C1=C(O)C(C)(C)OC(C)(C)C1=O` [Example A-225]: the pest or weed control at 250 g/ha in assay [1] (pre-emergence spray) was determined as 0%; in assay [2] (pre-emergence spray), 0%; in assay [3] (pre-emergence spray) it was 60%; in assay [4] (pre-emergence spray), 10%; in assay [5] (glasshouse), 60%; in assay [6] (glasshouse), 50%. Moreover, the values for the pest or weed control at 250 g/ha in assay [7] (glasshouse) and in assay [8] (glasshouse) were 90% and 70%, respectively.

As to `CCc1ccc(Oc2ccc3cc(Cl)ccc3n2)cc1C1=C(O)CC2(CCOCC2)CC1=O` [Example A-191], the pest or weed control at 250 g/ha is 40% in assay [1] (pre-emergence spray); 40% in assay [2] (pre-emergence spray); 90% in assay [3] (pre-emergence spray); 60% in assay [4] (pre-emergence spray); 100% in assay [5] (glasshouse); 100% in assay [6] (glasshouse). Moreover, the pest or weed control at 250 g/ha in assay [7] (glasshouse) and in assay [8] (glasshouse) was 100% throughout.

For the compound `CCc1ccc(Oc2ccc(Cl)cc2Cl)cc1C1=C(O)[C@H]2CC[C@H](C2)C1=O` (single isomer, unassigned) [Example A-90], the pest or weed control at 250 g/ha was determined as 70% in assay [1] (pre-emergence spray); 70% in assay [2] (pre-emergence spray); 100% in assay [3] (pre-emergence spray); 90% in assay [4] (pre-emergence spray); 60% in assay [5] (glasshouse); 30% in assay [6] (glasshouse). In addition, the pest or weed control at 250 g/ha came to 90% in assay [7] (glasshouse) and 80% in assay [8] (glasshouse).

As to `CCc1ccc(Oc2ccc3cc(Cl)ccc3n2)cc1C1=C(O)CC(C)(C)CC1=O` [Example A-261], the pest or weed control at 250 g/ha in assay [1] (pre-emergence spray) was 80%; in assay [2] (pre-emergence spray), 50%; in assay [3] (pre-emergence spray), 90%; in assay [4] (pre-emergence spray), 80%; in assay [5] (glasshouse), 90%; in assay [6] (glasshouse) it was 100%. The pest or weed control at 250 g/ha in assay [7] (glasshouse) and in assay [8] (glasshouse) was 100% throughout.

Consider `CCc1ccc(Oc2ccc(Br)cc2Cl)cc1C1=C(O)[C@@H]2CC[C@](C)(C1=O)C2(C)C` [Example A-240], for which the pest or weed control at 250 g/ha in assay [1] (pre-emergence spray) is 30%; in assay [2] (pre-emergence spray), 0%; in assay [3] (pre-emergence spray) it was 70%; in assay [4] (pre-emergence spray), 70%; in assay [5] (glasshouse) it was 30%; in assay [6] (glasshouse), 40%. Also, the results for the pest or weed control at 250 g/ha in assay [7] (glasshouse) and in assay [8] (glasshouse) were 70% and 60%, respectively.
